Experimental data: ChEMBL document CHEMBL1132909 (Bioorg Med Chem Lett, 2000)

target: Neuraminidase (Influenza A virus (A/Puerto Rico/8/1934(H1N1)), UniProt P03468); experiment: Inhibition of neuraminidase in Influenza A; format: functional
Sequence (P03468 whole entry): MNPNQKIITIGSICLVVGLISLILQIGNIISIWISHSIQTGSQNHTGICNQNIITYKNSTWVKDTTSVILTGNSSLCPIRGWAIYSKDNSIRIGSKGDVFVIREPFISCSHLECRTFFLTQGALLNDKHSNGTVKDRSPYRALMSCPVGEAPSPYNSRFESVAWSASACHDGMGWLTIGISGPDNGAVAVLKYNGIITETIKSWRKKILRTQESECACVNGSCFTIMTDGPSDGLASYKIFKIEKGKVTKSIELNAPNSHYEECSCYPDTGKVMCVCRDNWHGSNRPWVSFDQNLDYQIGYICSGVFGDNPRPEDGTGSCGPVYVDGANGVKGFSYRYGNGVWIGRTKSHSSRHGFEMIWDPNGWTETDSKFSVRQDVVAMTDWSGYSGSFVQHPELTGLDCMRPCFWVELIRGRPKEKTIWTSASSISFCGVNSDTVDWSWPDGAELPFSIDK

Structure (SMILES) | IC50 [nM]
CC(=O)N[C@H]1[C@H](N2CCC(C)CC2)C=C(C(=O)O)C[C@@H]1N | 51
CC(=O)N[C@H]1[C@H](N2CCCCC2)C=C(C(=O)O)C[C@@H]1N | 25
CCC1(CC)CN([C@@H]2C=C(C(=O)O)C[C@H](N)[C@H]2NC(C)=O)C1 | 265
CC(=O)N[C@H]1[C@H](N2CCCCCC2)C=C(C(=O)O)C[C@@H]1N | 35
CCC1CCN([C@@H]2C=C(C(=O)O)C[C@H](N)[C@H]2NC(C)=O)CC1 | 52
CC(=O)N[C@H]1[C@H](N2CCCCC[C@@H]2CO)C=C(C(=O)O)C[C@@H]1N | 8
CC(=O)N[C@H]1[C@H](N2CCOCC2)C=C(C(=O)O)C[C@@H]1N | 260
CC(=O)N[C@H]1[C@H](N2CCCC2)C=C(C(=O)O)C[C@@H]1N | 310
CC(=O)N[C@H]1[C@H](N2C3CCCC2CC3)C=C(C(=O)O)C[C@@H]1N | 32
CC(=O)N[C@H]1[C@H](N2CCCCCCC2)C=C(C(=O)O)C[C@@H]1N | 26
CCCC1CCN([C@@H]2C=C(C(=O)O)C[C@H](N)[C@H]2NC(C)=O)CC1 | 40
CC(=O)N[C@H]1[C@H](N2CCCCCCCC2)C=C(C(=O)O)C[C@@H]1N | 75
CC(=O)N[C@H]1[C@H](N2CCC2)C=C(C(=O)O)C[C@@H]1N | 1000
CC(=O)N[C@H]1[C@H](N2CCN(C)CC2)C=C(C(=O)O)C[C@@H]1N | 1900
